Series [1] concerns Varroa mites. The series is described as follows: Evaluation of acaricidal effect: emerging bees loaded with Varroa mites in glass petri dish, compound on Parafilm. The class given is in vivo, Varroa destructor. The conditions noted are these: for mites falling off bees: up to end of experiment; for acaricidal effect: highest amount tested (30 μl), end of 24 h. As to the method:
The effect of the compounds was checked in free moving-mites freshly collected from the bottom board using fine paint brush. All collected Varroa were kept on emerging bees at room temperature until the experiment.
Compounds (code-labeled, Table 1) were prepared in hexane:ethyl acetate (1:1) in 10 mM concentration according to instructions. Dilutions only of compound “A” was prepared. […] This setup enabled the testing of all the compounds and to save the mites.
The assay was conducted in glass petri dish (90 mm diameter and 17 mm deep glass) containing moistened filter paper. Five emerging bees loaded with two Varroa mites were put into each plate. The bees were provided with candy (60% of pollen and 40% sugar). 10 μl or 30 μl volume of each compound or control mix was placed on Parafilm paper (5×5 cm) on the plates cover.

The test system of series [2] is Varroa mites. Description: Example 6 behavioral dose response bio-assays of Varroa mites. The class given is in vivo. The conditions noted are these: for mite paralysis/mortality: 1 mg. The source says: Foragers were collected at the entrance of one or more honey bee hives by aspiration into a jar, when bees were flying back to the colony.
Initially, nurses were collected from an open brood frame of a honey bee hive. Bees apparently attending the brood were targeted for collection. As time passed and temperatures started to drop no open brood was observed, therefore subsequent collections targeted bees around sealed brood. At the end of the sampling period no sealed brood was present, so bees taken from the middle frame of a brood chamber were considered nurses.
Both foragers and nurses were immediately transferred to individual plastic cages (118×98×81 mm: H×W×D), fed with syrup (2:1) and kept overnight in an incubator at 30° C. and 70% RH. Next day, cages were inspected for any dead bees to be removed before freeze killing the bees on dry ice.
For Varroa mite collection, adult bees were taken from the brood chamber's central frames of a mite-infested hive using a glass jar. Bees were fed with syrup (2:1), and kept in an incubator at 30° C. and 70% RH until needed. First collections were made from frames with open and sealed brood, later only from sealed brood frames.
Mite-infested bees in the glass jar were dusted with icy sugar and shaken over a large plastic weighing boat. Dislodged Varroa were immediately transferred with a fine paint brush to a wet filter paper in a plastic petri dish to avoid desiccation. Individual mites were placed then onto the middle of a glass petri dish bottom (10 cm diameter) with a fresh freeze-killed forager or nurse bee on opposite sides of the plate. Synthesized compounds were applied onto a 1 cm^2 Parafilm square attached to the center of the petri dish cover's inner face, Hexane was used as control.
The bio-assays with a forager and a nurse bee, Varroa mite, and synthesized compounds were set in glass petri dishes placed into an incubator at 30° C. and 70% relative humidity. […] Mite paralysis and death were recorded after 3 h and 5 h.

The test system of series [3] is Varroa destructor mites. The series is described as follows: Example 3 paralysis assays in petri dishes (dose response, screen, blends). The format is in vivo. As to the method: Paralysis assays. These assays were done in 10 cm glass Petri dishes. A 3×3 cm piece of Parafilm was stuck to the lid of the dish, in the middle. The Parafilm received […], either pure (controls) or with the compound (treatments). The bottom of the dish received one freshly thawed nurse and one freshly thawed forager, placed ˜3 cm from the center of the dish. One mite was placed between the nurse and the forager, the lid was closed and groups of dishes were placed in an incubator at 30° C. Humidity levels were kept at around 35-40%.
Observation times were 3 h and 5 h. Mites were scored for whether the mite could move normally, was paralyzed (had difficulty moving) or dead (not moving).
Each assay was done in 5 technical replicates, in two biological replicates. Thus, each biological replicate was scored out of 5.
(§1) Experiments were performed in the dishes: i) dose response assays with a single compound at different doses of compound on the Parafilm (1 ng, 10 ng, 100 ng, 1 μg, 10 μg, 100 μg, 1 mg and 10 mg), ii) a screen with six compounds, all at a 1 mg dose, iii) an assay with blends of compounds 3c{3,6} and 3c{6,6}, and iv) one assay without bees (only to check for mite paralysis and death), with compounds 3c{3,6} and 3c{6,6}(pure or 1:1 blend), at 0.5 and 1 mg doses.

Series [4] relates to Varroa destructor mites. Description: Example 3 mite paralysis/death in the absence of bees. The class given is in vivo. Conditions: no bees, 4.5 h. On the procedure: as §1
Compounds 3c{3,6}, 3c{6,6} were tested on mites in the absence of bees, alone and as a 1:1 blend. Mite paralysis and death were checked every 30 min, up to 4.5 h after initial exposure. Four doses were tested: 0.2, 0.5, 1 and 10 mg.

For series [5], the system named is Varroa. The series is described as follows: Example 5 Varroa death and paralysis assay, single compounds and blend. More on the design: species or system Varroa destructor. The conditions noted are these: in vivo. On the procedure: Assays were done in 9 cm glass Petri dishes. A 2.5×2.5 cm piece of Parafilm was stuck to the lid of the dish, in the middle. 120 μL water were put on filter paper in the middle of the plate. The Parafilm received 10 μL of hexane, either pure (controls) or with the compound (treatments). The bottom of the dish received one freshly thawed nurse and one freshly thawed forager, placed at opposite sides. One mite was placed between the nurse and the forager, the lid was closed and groups of dishes were placed in an incubator at 30° C. Observation times were at 3 h, 5 h and 20 h. Mites were scored for whether the mite could move normally, was paralyzed (had difficulty moving) or dead (not moving). Four types of experiment were performed in the dishes: i) dose response assays with a single compound at different doses of compound on the Parafilm (1 ng, 10 ng, 100 ng, 1 μg, 10 μg, 100 μg, 1 mg) an assay with blends of compounds 3c{3,6} and 3c{6,6} (pure or 1:1 blend) at 0.5 mg and […].

For series [6], the system named is honey bee antennae. Conditions: earlier evaluation; cited from earlier work.
For series [7], the system named is Varroa. The conditions noted are these: earlier evaluation; cited from earlier work.

Structures can show the parent of a compound that is named as a salt. Bounds are passed on as bounds.

With `C=CCOc1ccccc1OCCC` [3a{3,6}, 1-allyloxy-2-propoxybenzene], the “mites falling off bees” value in series [1] was “occasionally fell off bees but reattached quickly”.

`CCOc1cccc(OCC)c1` [3b{2,2}, 1,3-diethoxybenzene]: the mite paralysis/mortality in series [2] amounted to 50%.

For the compound `C=CCOc1ccc(OCC)cc1` [3c{2,6}, 1-(allyloxy)-4-ethoxybenzene], the “paralysis and mite death in screen” value in series [3] (1 mg dose, 3 h) is reported as “little paralysis”.

On to `CCCOc1ccc(OCCC)cc1` [3c{3,3}, 1,4-dipropoxybenzene], for which the “paralysis and mite death in screen” value in series [3] (1 mg dose, 3 h) is “most reliable mite paralysis”. For the same compound, in series [1], the acaricidal effect result is reported as “clear acaricidal effect”.

Turning to `CCCCOc1ccc(OCCC)cc1` [3c{4,3}, 1-butoxy-4-propoxybenzene], the “paralysis and mite death in screen” value in series [3] (1 mg dose, 3 h) is “most death”. In addition, in series [1], the acaricidal effect result was “somewhat effective”.

Turning to `C=CCOc1ccc(OCCCC)cc1` [3c{4,6}, 1-(allyloxy)-4-butoxybenzene], in series [3] (1 mg dose), the “activity relative to compound 3c{3,6} in screen” value was “slightly less active”. In series [1], the acaricidal effect entry is reported as “clear acaricidal effect”.

For the compound `C=CCOc1ccc(OCC=C)cc1` [3c{6,6}, 1,4-bis(allyloxy)benzene], the “mite paralysis+death” value in series [4] (0.2 mg) and in series [4] (0.5 mg) was “no activity” throughout. In series [4] (10 mg), the “mite paralysis or death” value came to 100%. Moreover, the “fold less active than 3c{3,6} with regard to paralysis and death of mites” value in series [3] (from EC50) is listed as “ca. 4 ×”. Further, the “EC50 for paralysis and eventual death of mites” value in series [3] (neat compound on the source, vapors only, 3 h) was found to be 182 µg. The acaricidal activity alone result in series [5] is on record as “acaricidal”. For the same compound, the mite paralysis/mortality in series [2] came to 50%. The “doses at which mites were paralyzed or killed” value in series [2] (FIG. 9 / FIG. 10) was at least 10 µg. Further, in series [1], the acaricidal effect result is listed as “clear acaricidal effect”. Moreover, the “mites falling off bees” value in series [1] is “occasionally fell off bees but reattached quickly”.

With `C=CCOc1ccc(OCCCCC)cc1` [3c{n5,6}, 1-(allyloxy)-4-(pentyloxy)benzene], the “mites falling off bees” value in series [1] is “occasionally fell off bees but reattached quickly”.

`CCN(CC)C(=O)c1cccc(C)c1` [DEET, N,N-diethyl-meta-toluamide]: the “chemosensing and behavior of honey bees” value in series [6] was “not found to affect”. In series [7], the “ability of mites to reach a bee” value was “reduced” and the “host preference of Varroa” value is on record as “without affecting”.

In the case of `Cc1ccc(C(C)C)c(OC=O)c1` [thymyl formate], in series [1], the acaricidal effect result was “somewhat effective”.

Source of the values: patent publication US11540515B2, “Use of dialkoxybenzenes for control of honey bee mite varroa destructor” (Simon Fraser University, priority 2018, dated 2023).
